Columns and labels:
[1] = system: larvae of the army worm (Spodoptera frugiperda); test: Spodoptera frugiperda test (spray treatment); format: in vivo; conditions: 500 g/ha, sprayed maize leaf disks
From the text: Spodoptera frugiperda Test (Spray Treatment)

[2] = system: larvae of the mustard beetle (Phaedon cochleariae); test: Phaedon larvae test (spray treatment); conditions: sprayed Chinese cabbage leaf disks
[3] = system: eggs of the cotton bollworm (Heliothis virescens); test: Heliothis virescens egg test (spray treatment); format: in vivo; conditions: 500 g/ha, sprayed soybean leaves, 100% = none of the larvae hatched
From the text: Heliothis virescens Egg Test (Spray Treatment)

[4] = system: larvae of the cabbage moth (Plutella xylostella); test: Plutella test; format: in vivo; conditions: for Kill rate in % after 7^d: 100 PPM, dipped cabbage leaves; for efficacy (in words): Plutella test
From the text: Solvent: 7 parts by weight of dimethylformamide
Emulsifier: 1 part by weight of alkylaryl polyglycol ether

Meloidogyne incognita = test: Meloidogyne test (spray treatment); format: in vivo; conditions: 20 g/ha, nematicidal effect from formation of galls on lettuce roots
Procedure: Meloidogyne Test (Spray Treatment)
Solvent: 80 parts by weight of acetone
Containers are filled with sand, solution of active compound, Meloidogyne incognita egg/larvae suspension, and lettuce seeds. The lettuce seeds germinate and the plants develop. On the roots, galls are formed.
After the desired time, the nematicidal effect is determined in % from the formation of galls. 100% here means that no galls were found; 0% means that the number of galls on the treated plants corresponds to that in the untreated control.

[5] = system: greenhouse red spider mite (Tetranychus urticae); test: Tetranychus test (OP-resistant/spray treatment); format: in vivo
From the text: Tetranychus Test (OP-Resistant/Spray Treatment)
Disks of bean leaves (Phaseolus vulgaris) which are infested by all stages of the greenhouse red spider mite (Tetranychus urticae) are sprayed with an active compound preparation in the desired concentration.

| SMILES | Kill rate in % after 7^d [1] [%] | Kill rate in % after 7^d ([2]; 500 g/ha) [%] | Kill rate in % after 7^d [3] [%] | other results |
| --- | --- | --- | --- | --- |
| COc1cc(C2C3=C(COC3=O)Nc3cc4c(cc32)OCO4)ccc1F (stereo not shown) [Example 148] | 100 | – | – | – |
| O=C1OCC2=C1C(c1cccc(OC(F)(F)C(F)F)c1)c1cc3c(cc1N2)OCO3 (stereo not shown) [Example 157] | 100 | 100 | – | – |
| COc1cc(OC)cc(C2C3=C(COC3=O)Nc3c2ccc(OC)c3OC)c1 (stereo not shown) [Example 90] | 100 | 100 | – | – |
| COc1cc(C2C3=C(COC3=O)N(C)c3cc4c(cc32)OCO4)cc(OC)c1OC (stereo not shown) [Example 69] | – | 100 | – | – |
| O=C1OCC2=C1C(c1cc(Br)c3c(c1)OCO3)c1cc3c(cc1N2)OCO3 (stereo not shown) [Example 145] | 100 | 83 | – | – |
| COc1cc(OC)cc(C2(C)C3=C(COC3=O)Nc3cc4c(cc32)OCO4)c1 (stereo not shown) [Example 107] | – | – | 90 | – |
| COc1cc(OC)cc(C2C3=C(COC3=O)Nc3cc4c(cc32)OCCCO4)c1 (stereo not shown) [Example 75] | 100 | 100 | – | – |
| O=C1OCC2=C1C(c1cc(F)c(F)c(F)c1)c1cc3c(cc1N2)OCO3 (stereo not shown) [Example 153] | 100 | – | – | – |
| COc1cc(OC)cc(C2C3=C(COC3=O)Nc3ccc(OC)cc32)c1 (stereo not shown) [Example 86] | 100 | 100 | – | – |
| CC1CC2=C(C(=O)O1)C(c1cccc(Cl)c1)c1cc3c(cc1N2)OCO3 (stereo not shown) [Example 35] | 100 | 100 | – | – |
| O=C1OCC2=C1C(c1cc(F)cc(F)c1)c1cc3c(cc1N2)OCO3 (stereo not shown) [Example 16] | 100 | – | 97 | – |
| COc1cc(OC)cc(C2C3=C(COC3=O)Nc3cc(OC)c(C)cc32)c1 (stereo not shown) [Example 93] | 100 | 100 | – | – |
| O=C1OCC2=C1C(c1cc(Cl)cc(Cl)c1)c1cc3c(cc1N2)OCO3 (stereo not shown) [Example 12] | – | 100 | 100 | – |
| Cc1cc(C)cc(C2C3=C(COC3=O)Nc3cc4c(cc32)OCO4)c1 (stereo not shown) [Example 23] | 100 | – | 98 | – |
| COc1cc(OC)cc(C2C3=C(COC3=O)Nc3cc(SC)ccc32)c1 (stereo not shown) [Example 84] | 100 | – | – | – |
| CCOc1cc2c(cc1C)C(c1cc(OC)cc(OC)c1)C1=C(COC1=O)N2 (stereo not shown) [Example 99] | – | 83 | – | – |
| COc1cc2c(c(C3C4=C(COC4=O)Nc4cc5c(cc43)OCO5)c1)OCO2 (stereo not shown) [Example 155] | – | 100 | – | – |
| COc1cc(C2C3=C(COC3=O)Nc3cc4c(cc32)OCO4)ccc1Cl (stereo not shown) [Example 139] | 100 | 83 | – | – |
| O=C1OCC2=C1C(c1ccc(F)c(Br)c1)c1cc3c(cc1N2)OCO3 (stereo not shown) [Example 129] | 100 | – | 100 | – |
| O=C1OCC2=C1C(c1cccc(Cl)c1)c1cc3c(cc1N2)OCO3 (stereo not shown) [Example 6] | 100 | – | 98 | Kill rate in % after 7^d [4]: 100%; efficacy (in words) [4]: high efficacy |

| SMILES | Kill rate in % after 7^d [1] [%] | Kill rate in % after 7^d ([2]; 500 g/ha) [%] | Kill rate in % after 7^d [3] [%] | other results |
| --- | --- | --- | --- | --- |
| COc1cc(OC)c(C2C3=C(COC3=O)Nc3cc4c(cc32)OCO4)cn1 (stereo not shown) [Example 150] | – | – | 100 | – |
| O=C1OCC2=C1C(c1cccc(F)c1)c1cc3c(cc1N2)OCO3 (stereo not shown) [Example 20] | – | 83 | 96 | – |
| COc1ccc(C2C3=C(CN(c4ccccc4)C3=O)Nc3cc4c(cc32)OCO4)cc1 (stereo not shown) | – | – | – | Kill rate in % after 14^d (Meloidogyne incognita): 70% |
| COc1cc(C2C3=C(COC3=O)Nc3cc4c(cc32)OCO4)cc(O)c1OC (stereo not shown) [Example 130] | – | 100 | – | – |
| CCN1CC2=C(C1=O)C(c1ccc(OC)cc1)c1cc3c(cc1N2)OCO3 (stereo not shown) | – | – | – | Kill rate in % after 14^d (Meloidogyne incognita): 70% |
| CC1(C)CC(=O)C2=C(C1)Nc1cc3c(cc1C2c1cccc(Cl)c1)OCO3 (stereo not shown) [Example 31] | – | – | 83 | – |
| COc1cc(OC)cc(C2C3=C(COC3=O)Nc3cc4c(cc32)OCCO4)c1 (stereo not shown) [Example 74] | 100 | – | – | – |
| Cc1cccc(C2C3=C(COC3=O)Nc3cc4c(cc32)OCO4)c1 (stereo not shown) [Example 19] | 100 | – | – | – |
| O=C1OCC2=C1C(c1cc(C(F)(F)F)cc(Cl)c1F)c1cc3c(cc1N2)OCO3 (stereo not shown) [Example 113] | – | 100 | 95 | – |
| O=C1OCC2=C1C(c1cncc(Br)c1)c1cc3c(cc1N2)OCO3 (stereo not shown) [Example 116] | 100 | – | – | – |
| N#CCOc1cccc(C2C3=C(COC3=O)Nc3cc4c(cc32)OCO4)c1 (stereo not shown) [Example 136] | 100 | 83 | – | – |
| O=C1OCC2=C1C(c1ccccc1)c1cc3c(cc1N2)OCO3 (stereo not shown) [Example 17] | 100 | – | – | – |
| O=C1OCC2=C1C(c1cccc(Br)c1)c1cc3c(cc1N2)OCO3 (stereo not shown) [Example 18] | – | 100 | 98 | – |
| COc1cc(C2C3=C(COC3=O)Nc3cc4c(cc32)OC(F)(F)O4)cc(OC)c1OC (stereo not shown) [Example 70] | – | 100 | – | – |
| COc1ccc2c(c1)NC1=C(C(=O)OC1)C2c1cc(OC)c(OC)c(OC)c1 (stereo not shown) [Example 9] | 100 | – | – | Kill rate in % after 7^d [4]: 90%; efficacy (in words) [4]: high efficacy |
| COc1cc(OC)cc(C2C3=C(COC3=O)Nc3ccc(OC)cc32)c1 (stereo not shown) [Example 162] | – | – | 100 | – |
| COc1cc(OC)cc(C2C3=C(Nc4cc5c(cc42)OCO5)C(C)OC3=O)c1 (stereo not shown) [Example 45] | 100 | 100 | 98 | – |
| COc1cc(C2C3=C(COC3=O)Nc3cc4c(cc32)OCO4)cc(Br)c1OC (stereo not shown) [Example 114] | – | 83 | – | – |
| COc1ccc2c(c1)C(c1cc(OC)c(OC)c(OC)c1)C1=C(COC1=O)N2 (stereo not shown) [Example 8, 7-methoxy-9-(3,4,5-trimethoxyphenyl)-4,9-dihydro-3H-furo[3,4-b]quinolin-1-one] | – | 100 | – | – |
| COc1cc2c(cc1OC)C(c1ccc3c(c1)OCO3)C1=C(COC1=O)N2 (stereo not shown) [Example 72] | – | – | – | Kill rate in % after 14^d (Meloidogyne incognita): 100% |

| SMILES | Kill rate in % after 7^d [1] [%] | Kill rate in % after 7^d ([2]; 500 g/ha) [%] | Kill rate in % after 7^d [3] [%] | other results |
| --- | --- | --- | --- | --- |
| Clc1cccc(C2C3=C(CCC3)Nc3cc4c(cc32)OCO4)c1 (stereo not shown) [Example 30] | – | – | – | Kill rate in % after 7^d ([5]; 500 g/ha, after 7 d, sprayed bean leaf disks, all stages): 70%; efficacy (in words) ([5]; Tetranychus test): high efficacy |
| COc1cc(OC)cc(C2C3=C(COC3=O)Nc3cc(OC)ccc32)c1 (stereo not shown) [Example 161] | 100 | 100 | 100 | – |
| O=C1OCC2=C1C(c1cccc(OCCO)c1)c1cc3c(cc1N2)OCO3 (stereo not shown) [Example 158] | 100 | – | – | – |
| COc1cc(C2C3=C(COC3=O)Nc3cc4c(cc32)OCO4)cc2c1OCO2 (stereo not shown) [Example 133] | 83 | 100 | 95 | – |
| COc1c(Cl)cc(C2C3=C(COC3=O)Nc3cc4c(cc32)OCO4)cc1Cl (stereo not shown) [Example 128] | 83 | 100 | – | – |
| CCOc1cccc(C2C3=C(COC3=O)Nc3cc(OCC)ccc32)c1 (stereo not shown) [Example 103] | 100 | 100 | – | – |
| COc1cc(OC)cc(C2C3=C(CCC3=O)Nc3cc4c(cc32)OCO4)c1 (stereo not shown) [Example 56] | 100 | 100 | 80 | – |
| O=C1OCC2=C1C(c1ccc(F)c(Cl)c1)c1cc3c(cc1N2)OCO3 (stereo not shown) [Example 140] | 100 | – | – | – |
| COc1ccc(C2C3=C(COC3=O)Nc3cc4c(cc32)OCO4)cn1 (stereo not shown) [Example 142] | 100 | 100 | – | – |
| COc1cccc(C2C3=C(COC3=O)Nc3cc4c(cc32)OCO4)c1 (stereo not shown) [Example 1, 6,7-(methylenedioxy)-9-(3-methoxyphenyl)-4,9-dihydro-3H-furo[3,4-b]quinolin-1-one] | 100 | – | – | – |
| COc1cc2c(cc1OC)C(c1ccc3c(c1)OC(F)(F)O3)C1=C(COC1=O)N2 (stereo not shown) [Example 68] | – | – | – | Kill rate in % after 14^d (Meloidogyne incognita): 80% |
| COc1cc(OC)cc(C2C3=C(COC3=O)Nc3cc(OC)cc(OC)c32)c1 (stereo not shown) [Example 100] | 100 | – | – | Kill rate in % after 7^d ([2]; 100 g/ha): 83% |
| COc1cc(OC)cc(C2C3=C(COC3=O)Nc3cc(OC)c(OC)cc32)c1 (stereo not shown) [Example 73] | 83 | 83 | – | – |
| COc1cc(C2C3=C(COC3=O)Nc3cc4c(cc32)OCO4)cc(OC)c1OC (stereo not shown) [Example 61] | – | 100 | – | – |
| CCOc1cccc(C2C3=C(COC3=O)Nc3cc4c(cc32)OCO4)c1 (stereo not shown) [Example 111] | 100 | – | – | – |
| CN1OC(C)(C)C2=C(C1=O)C(c1cccc(Cl)c1)c1cc3c(cc1N2)OCO3 (stereo not shown) [Example 36] | – | – | 80 | – |
| O=C1OCC2=C1C(c1cc(Br)cc(Br)c1)c1cc3c(cc1N2)OCO3 (stereo not shown) [Example 123] | 100 | – | 95 | – |
| O=C1OCC2=C1C(c1cccc(OCc3ccc(Cl)cc3)c1)c1cc3c(cc1N2)OCO3 (stereo not shown) [Example 149] | – | – | 85 | – |

From US20080113994A1, “Annelated Quinoline Derivatives As Pesticide” (priority 2004, published 2008)
